Data reported in US20230085307A1, “PYRIDAZINONE COMPOUND AND HERBICIDE” (NISSAN CHEMICAL CORPORATION, priority 2019, published 2023).

Tests used:
[1] = test system: late watergrass; assay: Test Example 1: herbicidal activity, application before weed generation under submerged conditions (Table 16, symbol A); type: in vivo, late watergrass (Echinochloa oryzicola); conditions: amount of applied herbicide 320 g/ha
Procedure, shortened: (§1)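 Emulsion formulation, water-diluted to set dose, was put onto the flooded surface (4 cm depth, alluvial soil) the same day weeds were sown and 2.5-leaf rice transplanted. After 3 weeks at 25-30 °C under glass, each species was rated 0 (≤5% kill) to 5 (≥90% kill).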

[2] = test system: Japanese bulrush; assay: Test Example 1: herbicidal activity, application before weed generation under submerged conditions (Table 16, symbol B); type: in vivo, Japanese bulrush (Schoenoplectus juncoides); conditions: amount of applied herbicide 320 g/ha
Procedure, shortened: as §1

[3] = test system: barnyard grass; assay: Test Example 3: herbicidal effect by foliage application, Wagner pot (Table 18, symbol H); type: in vivo, barnyard grass (Echinochloa crus-galli); conditions: for herbicidal effect on H: barnyard grass: amount of applied herbicide 320 g/ha; for herbicidal effect on barnyard grass (H): 320 g/ha
Procedure, shortened: (§2)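 Plants were sown in alluvial soil held under 0.1–0.5 cm standing water and grown 14 days in a greenhouse at 25–30 °C. An emulsifiable formulation, water-diluted to the set dose, was then sprayed onto the foliage, and effects were scored three weeks later using previously defined criteria.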

[4] = test system: rice flat sedge; assay: Test Example 3: herbicidal effect by foliage application, Wagner pot (Table 18, symbol E); type: in vivo, rice flat sedge (Cyperus iria); conditions: for herbicidal effect on E: rice flat sedge: amount of applied herbicide 320 g/ha; for herbicidal effect on rice flat sedge (E): 320 g/ha
Procedure, shortened: as §2

[5] = test system: southern crabgrass; assay: Test Example 4: herbicidal effect by soil treatment (Table 19, symbol F); type: in vivo, southern crabgrass (Digitaria ciliaris); conditions: amount of applied herbicide 320 g/ha
Procedure, shortened: (§3)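 Soil-surface application: an emulsion agent diluted with water to the predetermined dose is sprayed uniformly over seeds lying under roughly 1.5 cm of sterilized diluvial soil. Boxes stay in a greenhouse at 25° C. to 30° C. Three weeks later, each species is graded on previously defined criteria.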

[6] = test system: green foxtail; assay: Test Example 4: herbicidal effect by soil treatment (Table 19, symbol G); type: in vivo, green foxtail (Setaria viridis); conditions: amount of applied herbicide 320 g/ha
Procedure, shortened: as §3

[7] = test system: Italian ryegrass; assay: Test Example 4: herbicidal effect by soil treatment (Table 19, symbol K); type: in vivo, Italian ryegrass (Lolium multiflorum); conditions: amount of applied herbicide 320 g/ha
Procedure, shortened: as §3

[8] = test system: windgrass; assay: Test Example 4: herbicidal effect by soil treatment (Table 19, symbol L); type: in vivo, windgrass (Apera spica-venti); conditions: amount of applied herbicide 320 g/ha
Procedure, shortened: as §3

[9] = test system: velvetleaf; assay: Test Example 4: herbicidal effect by soil treatment (Table 19, symbol M); type: in vivo, velvetleaf (Abutilon theophrasti); conditions: amount of applied herbicide 320 g/ha
Procedure, shortened: as §3

[10] = test system: persian speedwell; assay: Test Example 4: herbicidal effect by soil treatment (Table 19, symbol R); type: in vivo, Persian speedwell (Veronica persica); conditions: amount of applied herbicide 320 g/ha
Procedure, shortened: as §3

[11] = test system: southern crabgrass; assay: Test Example 5: herbicidal effect by foliage application, plastic box (Table 20, symbol F); type: in vivo, southern crabgrass (Digitaria ciliaris); conditions: for F: southern crabgrass, herbicidal effect (criteria 0-5): AAH 320 g/ha
Procedure, shortened: (§4)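 Sow seeds spot-wise in sterilized diluvial soil; cover with ~1.5 cm soil. Grow 14 days in greenhouse, 25° C. to 30° C. Spray foliage with emulsion diluted to predetermined amount. Rate effect after 3 weeks.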

[12] = test system: green foxtail; assay: Test Example 5: herbicidal effect by foliage application, plastic box (Table 20, symbol G); type: in vivo, green foxtail (Setaria viridis); conditions: for G: green foxtail, herbicidal effect (criteria 0-5): AAH 320 g/ha
Procedure, shortened: as §4

[13] = test system: barnyard grass; assay: Test Example 5: herbicidal effect by foliage application, plastic box (Table 20, symbol H); type: in vivo, barnyard grass (Echinochloa crus-galli); conditions: for H: barnyard grass, herbicidal effect (criteria 0-5): AAH 320 g/ha
Procedure, shortened: as §4

[14] = test system: wild oat; assay: Test Example 5: herbicidal effect by foliage application, plastic box (Table 20, symbol I); type: in vivo, wild oat (Avena fatua); conditions: for I: wild oat, herbicidal effect (criteria 0-5): AAH 320 g/ha
Procedure, shortened: as §4

[15] = test system: blackgrass; assay: Test Example 5: herbicidal effect by foliage application, plastic box (Table 20, symbol J); type: in vivo, blackgrass (Alopecurus myosuroides); conditions: foliage application; for J: blackgrass, herbicidal effect (criteria 0-5): AAH 320 g/ha, evaluated three weeks after application
Procedure, shortened: as §4

[16] = test system: windgrass; assay: Test Example 5: herbicidal effect by foliage application, plastic box (Table 20, symbol L); type: in vivo, windgrass (Apera spica-venti); conditions: evaluated three weeks after application; for L: windgrass, herbicidal effect (criteria 0-5): foliage application, AAH 320 g/ha
Procedure, shortened: as §4

[17] = test system: velvetleaf; assay: Test Example 5: herbicidal effect by foliage application, plastic box (Table 20, symbol M); type: in vivo, velvetleaf (Abutilon theophrasti); conditions: for M: velvetleaf, herbicidal effect (criteria 0-5): AAH 320 g/ha
Procedure, shortened: as §4

[18] = test system: redroot pigweed; assay: Test Example 5: herbicidal effect by foliage application, plastic box (Table 20, symbol N); type: in vivo, redroot pigweed (Amaranthus retroflexus); conditions: for N: redroot pigweed, herbicidal effect (criteria 0-5): AAH 320 g/ha
Procedure, shortened: as §4

[19] = foliage application, evaluated three weeks after application
[20] = foliage application, 320 g/ha, three weeks after application
[21] = 320 g/ha, foliage application after 14-day growth, evaluated three weeks after application

SMILES	Herbicidal effect, A: late watergrass [1]	Herbicidal effect, B: Japanese bulrush [2]	herbicidal effect on H: barnyard grass [3]	herbicidal effect on E: rice flat sedge [4]	herbicidal effect, F: southern crabgrass [5]	herbicidal effect, G: green foxtail [6]	herbicidal effect, K: Italian ryegrass [7]	herbicidal effect, L: windgrass [8]	herbicidal effect, M: velvetleaf [9]	herbicidal effect, R: persian speedwell [10]	F: southern crabgrass, herbicidal effect (criteria 0-5) [11, 19]	G: green foxtail, herbicidal effect (criteria 0-5) [12, 19]	H: barnyard grass, herbicidal effect (criteria 0-5) [13, 19]	I: wild oat, herbicidal effect (criteria 0-5) [14, 19]	J: blackgrass, herbicidal effect (criteria 0-5) [15]	L: windgrass, herbicidal effect (criteria 0-5) [16]	M: velvetleaf, herbicidal effect (criteria 0-5) [17, 19]	N: redroot pigweed, herbicidal effect (criteria 0-5) [18, 19]	herbicidal effect on barnyard grass (H) [3]	herbicidal effect on rice flat sedge (E) [4]	other results
Cc1nn(C)c(=O)c(-c2c(-c3cnccc3C(F)(F)F)sc3ccc(F)cc23)c1O [2-387]	3 (Herbicidal rate of 40% or more and less than 70%)	3 (Herbicidal rate of 40% or more and less than 70%)	5 (Herbicidal rate of 90% or more (almost completely withered))	5 (Herbicidal rate of 90% or more (almost completely withered))	3 (Herbicidal rate of 40% or more and less than 70%)	3 (Herbicidal rate of 40% or more and less than 70%)	4 (Herbicidal rate of 70% or more and less than 90%)	3 (Herbicidal rate of 40% or more and less than 70%)	3 (Herbicidal rate of 40% or more and less than 70%)	5 (Herbicidal rate of 90% or more (almost completely withered))	4 (Herbicidal rate of 70% or more and less than 90%)	3 (Herbicidal rate of 40% or more and less than 70%)	5 (Herbicidal rate of 90% or more (almost completely withered))	4 (Herbicidal rate of 70% or more and less than 90%)	4 (Herbicidal rate of 70% or more and less than 90%)	5 (Herbicidal rate of 90% or more (almost completely withered))	5 (Herbicidal rate of 90% or more (almost completely withered))	5 (Herbicidal rate of 90% or more (almost completely withered))	–	–	–
CCCC(=O)Oc1c(C)nn(C)c(=O)c1-c1c(-c2ccc(Cl)s2)sc2ccc(F)cc12 [2-391]	5 (Herbicidal rate of 90% or more (almost completely withered))	4 (Herbicidal rate of 70% or more and less than 90%)	5 (Herbicidal rate of 90% or more (almost completely withered))	5 (Herbicidal rate of 90% or more (almost completely withered))	5 (Herbicidal rate of 90% or more (almost completely withered))	4 (Herbicidal rate of 70% or more and less than 90%)	5 (Herbicidal rate of 90% or more (almost completely withered))	3 (Herbicidal rate of 40% or more and less than 70%)	3 (Herbicidal rate of 40% or more and less than 70%)	3 (Herbicidal rate of 40% or more and less than 70%)	5 (Herbicidal rate of 90% or more (almost completely withered))	5 (Herbicidal rate of 90% or more (almost completely withered))	5 (Herbicidal rate of 90% or more (almost completely withered))	3 (Herbicidal rate of 40% or more and less than 70%)	3 (Herbicidal rate of 40% or more and less than 70%)	4 (Herbicidal rate of 70% or more and less than 90%)	5 (Herbicidal rate of 90% or more (almost completely withered))	5 (Herbicidal rate of 90% or more (almost completely withered))	–	–	–
CCCC(=O)Oc1c(C)nn(C)c(=O)c1-c1c(-c2ccc(C(F)(F)F)cc2)sc2cc(F)ccc12 [3-140]	5 (Herbicidal rate of 90% or more (almost completely withered))	3 (Herbicidal rate of 40% or more and less than 70%)	–	–	–	–	–	–	–	–	–	–	–	–	–	–	–	–	5 (Herbicidal rate of 90% or more (almost completely withered))	5 (Herbicidal rate of 90% or more (almost completely withered))	Herbicidal effect by soil treatment, F: southern crabgrass [5]: 0 (Herbicidal rate of 5% or less (almost no effect)); Herbicidal effect by soil treatment, G: green foxtail [6]: 0 (Herbicidal rate of 5% or less (almost no effect)); Herbicidal effect by soil treatment, K: Italian ryegrass [7]: 0 (Herbicidal rate of 5% or less (almost no effect)); Herbicidal effect by soil treatment, L: windgrass [8]: 0 (Herbicidal rate of 5% or less (almost no effect)); Herbicidal effect by soil treatment, M: velvetleaf [9]: 0 (Herbicidal rate of 5% or less (almost no effect)); Herbicidal effect by soil treatment, R: persian speedwell [10]: 0 (Herbicidal rate of 5% or less (almost no effect)); F: southern crabgrass, herbicidal effect grade [11, 20]: 1 (Herbicidal rate of 5% or more and less than 20%); G: green foxtail, herbicidal effect grade [12, 20]: 2 (Herbicidal rate of 20% or more and less than 40%); H: barnyard grass, herbicidal effect grade [13, 20]: 3 (Herbicidal rate of 40% or more and less than 70%); I: wild oat, herbicidal effect grade [14, 20]: 2 (Herbicidal rate of 20% or more and less than 40%); J: blackgrass, herbicidal effect grade ([15]; 320 g/ha, three weeks after application): 0 (Herbicidal rate of 5% or less (almost no effect)); M: velvetleaf, herbicidal effect grade [17, 20]: 5 (Herbicidal rate of 90% or more (almost completely withered)); N: redroot pigweed, herbicidal effect grade [18, 20]: 5 (Herbicidal rate of 90% or more (almost completely withered))
CCCC(=O)Oc1c(C)nn(C)c(=O)c1-c1c(-c2ccc(C#N)cc2)sc2c(F)cccc12 [4-053]	5 (Herbicidal rate of 90% or more (almost completely withered))	3 (Herbicidal rate of 40% or more and less than 70%)	–	–	–	–	–	–	–	–	–	–	–	–	–	–	–	–	4 (Herbicidal rate of 70% or more and less than 90%)	4 (Herbicidal rate of 70% or more and less than 90%)	Herbicidal effect by soil treatment, F: southern crabgrass [5]: 0 (Herbicidal rate of 5% or less (almost no effect)); Herbicidal effect by soil treatment, G: green foxtail [6]: 2 (Herbicidal rate of 20% or more and less than 40%); Herbicidal effect by soil treatment, K: Italian ryegrass [7]: 4 (Herbicidal rate of 70% or more and less than 90%); Herbicidal effect by soil treatment, L: windgrass [8]: 0 (Herbicidal rate of 5% or less (almost no effect)); Herbicidal effect by soil treatment, M: velvetleaf [9]: 2 (Herbicidal rate of 20% or more and less than 40%); Herbicidal effect by soil treatment, R: persian speedwell [10]: 5 (Herbicidal rate of 90% or more (almost completely withered)); herbicidal effect on F: southern crabgrass (evaluation grade 0-5) [11, 21]: 0 (Herbicidal rate of 5% or less (almost no effect)); herbicidal effect on G: green foxtail (evaluation grade 0-5) [12, 21]: 0 (Herbicidal rate of 5% or less (almost no effect)); herbicidal effect on H: barnyard grass (evaluation grade 0-5) [13, 21]: 2 (Herbicidal rate of 20% or more and less than 40%); herbicidal effect on I: wild oat (evaluation grade 0-5) [14, 21]: 2 (Herbicidal rate of 20% or more and less than 40%); herbicidal effect on L: windgrass (evaluation grade 0-5) ([16]; 320 g/ha, foliage application after 14-day growth): 4 (Herbicidal rate of 70% or more and less than 90%); herbicidal effect on M: velvetleaf (evaluation grade 0-5) [17, 21]: 5 (Herbicidal rate of 90% or more (almost completely withered)); herbicidal effect on N: redroot pigweed (evaluation grade 0-5) [18, 21]: 5 (Herbicidal rate of 90% or more (almost completely withered))
